Data as given in ChEMBL document CHEMBL3779770, “Synthesis, biological evaluation and molecular docking study of some novel indole and pyridine based 1,3,4-oxadiazole derivatives as potential antitubercular agents” (Bioorg Med Chem Lett, 2016).
Converted amounts (≈) assume the structure as drawn.

How the values were obtained:
Bacillus subtilis = test: Antibacterial activity against Bacillus subtilis NCIM 2079 after 12 hrs; format: functional, organism-based; details: NCIM 2079, 12 h
Staphylococcus aureus = test: Antibacterial activity against Staphylococcus aureus NCIM 2010 after 12 hrs; format: functional, organism-based; details: NCIM 2010, 12 h
[1] = system: Mycobacterium tuberculosis; test: Antitubercular activity against dormant state Mycobacterium tuberculosis H37Ra assessed as viable cells after 12 days by XTT reduction menadione assay; format: functional, organism-based; details: 288 h
[2] = (§1) Cytotoxicity against human HeLa cells after 72 hrs by MTT assay; format: cell-based; details: HeLa cells
HeLa = test: as §1; format: cell-based; details: hela, 72 h
[3] = system: Mycobacterium tuberculosis; test: Antitubercular activity against active state Mycobacterium tuberculosis H37Ra assessed as viable cells after 8 days by XTT reduction menadione assay; format: functional, organism-based; details: 192 h
Escherichia coli = test: Antibacterial activity against Escherichia coli NCIM 2688 after 8 hrs; format: functional, organism-based; details: NCIM 2688, 8 h
Pseudomonas fluorescens = test: Antibacterial activity against Pseudomonas fluorescens NCIM 2036 after 8 hrs; format: functional, organism-based; details: NCIM 2036, 8 h
[4] = Cytotoxicity against human PANC1 cells after 48 hrs by MTT assay; format: cell-based, PANC-1; details: for GI50 at 48 h: PANC1 cells; for GI90: panc-1, 48 h
[5] = (§2) Cytotoxicity against human A549 cells after 48 hrs by MTT assay; format: cell-based; details: A549 cells
A549 = test: as §2; format: cell-based; details: a549, 48 h

Compound	IC50 (Bacillus subtilis) [µg/mL]	MIC (Bacillus subtilis) [µg/mL]	IC50 (Staphylococcus aureus) [µg/mL]	MIC (Staphylococcus aureus) [µg/mL]	IC50 [1] [µg/mL]	MIC [1] [µg/mL]	GI50 at 72 h [2] [µg/mL]	GI90 (HeLa) [µg/mL]	IC50 [3] [µg/mL]	MIC [3] [µg/mL]	IC50 (Escherichia coli) [µg/mL]	MIC (Escherichia coli) [µg/mL]	IC50 (Pseudomonas fluorescens) [µg/mL]	MIC (Pseudomonas fluorescens) [µg/mL]	GI50 at 48 h [4] [µg/mL]	GI90 [4] [µg/mL]	GI50 at 48 h [5] [µg/mL]	GI90 (A549) [µg/mL]
COc1ccc(/C=C\C(=O)N2N=C(c3ccncc3)OC2c2c[nH]c3ccccc23)cc1 (configuration not stated)	15.7 (≈ 37 µM)	156 (≈ 369 µM)	7.72 (≈ 18.2 µM)	88.1 (≈ 208 µM)	> 30	> 30	> 30	> 30	> 30	> 30	14 (≈ 33 µM)	182 (≈ 429 µM)	15.7 (≈ 37 µM)	101 (≈ 239 µM)	> 30	> 30	> 30	> 30
O=C(/C=C\c1ccccc1F)N1N=C(c2ccncc2)OC1c1c[nH]c2ccccc12 (configuration not stated)	32 (≈ 77.5 µM)	> 256	28.8 (≈ 69.8 µM)	202 (≈ 489 µM)	> 30	> 30	> 30	> 30	> 30	> 30	25.6 (≈ 62 µM)	> 256	26.4 (≈ 64 µM)	> 256	> 30	> 30	> 30	> 30
O=C(/C=C\c1ccccc1Cl)N1N=C(c2ccncc2)OC1c1c[nH]c2ccccc12 (configuration not stated)	4.13 (≈ 9.63 µM)	22 (≈ 51.3 µM)	3.33 (≈ 7.76 µM)	29.2 (≈ 68 µM)	> 30	> 30	> 30	> 30	11.6 (≈ 27.1 µM)	> 30	1.73 (≈ 4.03 µM)	27.6 (≈ 64.3 µM)	2.53 (≈ 5.9 µM)	25.2 (≈ 58.7 µM)	> 30	> 30	> 30	> 30
O=C(/C=C\c1ccc(F)cc1)N1N=C(c2ccncc2)OC1c1c[nH]c2ccccc12 (configuration not stated)	15.6 (≈ 37.8 µM)	> 256	12.9 (≈ 31.3 µM)	> 256	> 30	> 30	> 30	> 30	> 30	> 30	13.6 (≈ 33 µM)	> 256	7.33 (≈ 17.8 µM)	> 256	> 30	> 30	> 30	> 30
O=C(/C=C\c1cccc(Cl)c1Cl)N1N=C(c2ccncc2)OC1c1c[nH]c2ccccc12 (configuration not stated)	8.39 (≈ 18.1 µM)	168 (≈ 362 µM)	7.59 (≈ 16.4 µM)	162 (≈ 349 µM)	> 30	> 30	> 30	> 30	> 30	> 30	5.99 (≈ 12.9 µM)	159 (≈ 343 µM)	6.79 (≈ 14.7 µM)	198 (≈ 427 µM)	> 30	> 30	> 30	> 30
O=C(/C=C/c1c(Cl)cccc1Cl)N1N=C(c2ccncc2)OC1c1c[nH]c2ccccc12 (configuration not stated)	19.2 (≈ 41.4 µM)	> 256	86.8 (≈ 187 µM)	148 (≈ 320 µM)	13.7 (≈ 29.6 µM)	> 30	> 30	> 30	12.7 (≈ 27.4 µM)	> 30	14.8 (≈ 31.9 µM)	> 256	15.6 (≈ 33.6 µM)	> 256	> 30	> 30	> 30	> 30
O=C(/C=C\c1cccc(Br)c1)N1N=C(c2ccncc2)OC1c1c[nH]c2ccccc12 (configuration not stated)	4.74 (≈ 10 µM)	22.6 (≈ 47.9 µM)	2.01 (≈ 4.25 µM)	21.1 (≈ 44.5 µM)	> 30	> 30	> 30	> 30	> 30	> 30	2.39 (≈ 5.05 µM)	18.2 (≈ 38.6 µM)	3.19 (≈ 6.74 µM)	19.1 (≈ 40.2 µM)	> 30	> 30	> 30	> 30
CC1(C)S[C@@H]2[C@H](NC(=O)[C@H](N)c3ccccc3)C(=O)N2[C@H]1C(=O)O [AMPICILLIN]	3.15 (≈ 9.02 µM)	10.3 (≈ 29.5 µM)	0.42 (≈ 1.2 µM)	1 (≈ 2.86 µM)							0.086 (≈ 0.246 µM)	1.46 (≈ 4.18 µM)	1.87 (≈ 5.35 µM)	4.36 (≈ 12.5 µM)				
O=C(/C=C\c1cccc(Cl)c1)N1N=C(c2ccncc2)OC1c1c[nH]c2ccccc12 (configuration not stated)	19.3 (≈ 45 µM)	> 256	14.5 (≈ 33.9 µM)	> 256	> 30	> 30	> 30	> 30	2.54 (≈ 5.92 µM)	> 30	14 (≈ 32.6 µM)	> 256	12.1 (≈ 28.3 µM)	> 256	> 30	> 30	> 30	> 30
O=C(/C=C\c1cccc([N+](=O)[O-])c1)N1N=C(c2ccncc2)OC1c1c[nH]c2ccccc12 (configuration not stated)	22.4 (≈ 51 µM)	86 (≈ 196 µM)	21.7 (≈ 49.3 µM)	93.2 (≈ 212 µM)	> 30	> 30	> 30	> 30	> 30	> 30	19.2 (≈ 43.7 µM)	174 (≈ 395 µM)	20.9 (≈ 47.5 µM)	55.7 (≈ 127 µM)	> 30	> 30	> 30	> 30
O=C(/C=C\c1cccc(F)c1)N1N=C(c2ccncc2)OC1c1c[nH]c2ccccc12 (configuration not stated)	> 256	> 256	> 256	> 256	> 30	> 30	> 30	> 30	> 30	> 30	> 256	> 256	> 256	> 256	> 30	> 30	> 30	> 30
NC[C@H]1O[C@H](O[C@H]2[C@H](O)[C@@H](O[C@H]3O[C@H](CO)[C@@H](O)[C@H](N)[C@H]3O)[C@H](N)C[C@@H]2N)[C@H](O)[C@@H](O)[C@@H]1O [KANAMYCIN]	0.37 (≈ 0.764 µM)	1.35 (≈ 2.79 µM)	> 30	> 33							0.13 (≈ 0.268 µM)	1.62 (≈ 3.34 µM)	0.014 (≈ 0.0289 µM)	0.49 (≈ 1.01 µM)				
Cc1ccc(/C=C\C(=O)N2N=C(c3ccncc3)OC2c2c[nH]c3ccccc23)cc1 (configuration not stated)	6.53 (≈ 16 µM)	10.3 (≈ 25.1 µM)	5.73 (≈ 14 µM)	9.46 (≈ 23.2 µM)	> 30	> 30	> 30	> 30	> 30	> 30	3.33 (≈ 8.15 µM)	7.86 (≈ 19.2 µM)	4.13 (≈ 10.1 µM)	8.66 (≈ 21.2 µM)	> 30	> 30	> 30	> 30
O=C(/C=C\c1ccc(Br)cc1)N1N=C(c2ccncc2)OC1c1c[nH]c2ccccc12 (configuration not stated)	15.2 (≈ 32.1 µM)	> 256	12.8 (≈ 27 µM)	> 256	> 30	> 30	> 30	> 30	> 30	> 30	12.1 (≈ 25.6 µM)	> 256	10.4 (≈ 22 µM)	> 256	> 30	> 30	> 30	> 30
O=C(/C=C\c1cccc(O)c1)N1N=C(c2ccncc2)OC1c1c[nH]c2ccccc12 (configuration not stated)	19.8 (≈ 48.4 µM)	121 (≈ 295 µM)	18.2 (≈ 44.5 µM)	84.4 (≈ 206 µM)	> 30	> 30	> 30	> 30	> 30	> 30	16.6 (≈ 40.6 µM)	49.2 (≈ 120 µM)	17.4 (≈ 42.5 µM)	82.8 (≈ 202 µM)	> 30	> 30	> 30	> 30
O=C(/C=C\c1ccc(O)cc1)N1N=C(c2ccncc2)OC1c1c[nH]c2ccccc12 (configuration not stated)	> 256	> 256	> 256	> 256	> 30	> 30	> 30	> 30	> 30	> 30	> 256	> 256	45 (≈ 110 µM)	> 256	> 30	> 30	> 30	> 30
CC(=O)O[C@H]1C(=O)[C@@]2(C)[C@H]([C@H](OC(=O)c3ccccc3)[C@]3(O)C[C@H](OC(=O)[C@H](O)[C@@H](NC(=O)c4ccccc4)c4ccccc4)C(C)=C1C3(C)C)[C@]1(OC(C)=O)CO[C@@H]1C[C@@H]2O [PACLITAXEL]							0.005 (≈ 0.00586 µM)	0.075 (≈ 0.0878 µM)							0.0038 (≈ 0.00445 µM)	0.078 (≈ 0.0913 µM)	0.12 (≈ 0.141 µM)	5.88 (≈ 6.89 µM)
O=C(/C=C\c1ccccc1)N1N=C(c2ccncc2)OC1c1c[nH]c2ccccc12 (configuration not stated)	12.7 (≈ 32.1 µM)	45.4 (≈ 115 µM)	11.9 (≈ 30.1 µM)	42.2 (≈ 107 µM)	> 30	> 30	> 30	> 30	28.7 (≈ 72.8 µM)	> 30	10.3 (≈ 26 µM)	50.5 (≈ 128 µM)	11.1 (≈ 28 µM)	51.3 (≈ 130 µM)	> 30	> 30	> 30	> 30
